Data: the NIST ThermoML archive (doi:10.1016/j.jct.2007.10.006)
± gives the expanded uncertainty stated by the source.

Settings: Crystal; thermal analyzer

Compound Oc1ccc(/C=C/c2cc(O)cc(O)c2)cc1 [5-[(1E)-2-(4-hydroxyphenyl)-ethenyl]-1,3-benzenediol] has a Normal melting temperature of 268.1 ± 1 °C.
